Target: T1, purified human recombinant MTH1 (human MTH1, residues 42-197) (Homo sapiens, UniProt P36639)
T1 construct: human MTH1, residues 42-197, Uniprot-ID: P36639, expressed in E. coli; made in house; host or cells: E. coli
Assay: MTH1 enzymatic assay (luminescence-based, PPiLight)
Assay type: biochemical
Conditions: 6 μM 8-oxo-dGTP, Table 1, grouped
Procedure: The IC50 value was determined by a MTH1 enzymatic assay. The assay comprises the principal steps of incubating a mixture of MTH1, the compound in question at different concentrations and 8-oxo-2′-deoxyguanosine-5′-triphosphate (8-oxo-dGTP) in assay buffer. Nucleotide triphosphate hydrolysis by MTH1, i.e. decomposition of 8-oxo-2′-deoxyguanosine-5′-triphosphate, produces 8-oxo-2′-deoxyguanosine-5′-monophosphate (8-oxo-dGMP) and pyrophosphate (PPi). The amount of generated pyrophosphate (PPi) is then measured by a bioluminescent reaction. In detail: The MTH1 (human mutT homologue 1) enzymatic assay is performed as a luminescence-based 384-well assay. […] The assay buffer contains 100 mM Tris-acetate pH 7.5, 40 mM NaCl, 10 mM Mg(OAc)2, 0.005% Tween 20 and 2 mM dithiothreitol (DTT). […] Then, in a second step, the substrate 8-oxo-dGTP is added and the reaction mixture is incubated for 30 minutes at 22° C. The pharmacologically relevant assay volume is 5 PI. The final concentrations in the assay during incubation of the reaction mixture are 0.1-0.2 nM, typically 0.1 nM, MTH1 and 6 μM 8-oxo-dGTP. After incubation of the reaction mixture, the generation of pyrophosphate (PPi) as a result of nucleotide triphosphate (8-oxo-dGTP) hydrolysis by MTH1 is detected using the PPiLight inorganic pyrophosphate assay kit (Lonza) (third step). 2 to 5 μl, such as 3 to 5 μl, typically 3 or 4 μl, for instance 4 μl, of a 1:1 mixture of PPiLight converting reagent (AMP) and PPiLight detection reagent are added to the reaction mixture. In the presence of pyrophosphate, the detection reagent catalyzes the conversion of AMP to ATP. Luciferase then produces light from the newly formed ATP and luciferin. The amount of light produced is directly proportional to the amount of PPi in the sample. Following signal development for 1 h the plates are analysed in an EnVision (PerkinElmer) microplate reader using the ultra sensitive luminescence option. Data are processed employing the Genedata Screener software. In particular, IC50 values are determined in the usual manner (using the Hill Equation) by fitting a dose-response curve to the data points using nonlinear regression analysis.
Hill Equation: Y=S0+(Sinf−S0)/(1+(10^logIC50/10^c)^n); Y: luminescence signal (response), S0: activity level at zero concentration of test compound, Sinf=activity level at infinite concentration, Hill coefficient n=measure of the slope at IC50, c=concentration in logarithmic units corresponding to the values on the x-axis of the dose response curve plot

| Structure (SMILES) | IC50 [nM] |
| --- | --- |
| CNc1cc(N2CCCCC2Cc2ccccc2OC)nc(N)n1 (single isomer, unassigned) [Example 106] | < 1 |
| Nc1nc(NC2CC2)cc(N2C(=O)CCC2c2ccc(Cl)cc2)n1 (stereo not drawn) [Example 104, 1-(2-Amino-6-cyclopropylamino-pyrimidin-4-yl)-5-(4-chloro-phenyl)-pyrrolidin-2-one] | > 100 |
| CNc1cc(N2CCCC2C2CCCC2)nc(N)n1 (stereo not drawn) [Example 102, 6-(2-Cyclopentyl-pyrrolidin-1-yl)-N4-methyl-pyrimidine-2,4-diamine] | < 1 |
| Nc1nc2c(c(N3CC[C@@H](O)C3)n1)CCCN2 [Example 70, (R)-1-(2-Amino-5,6,7,8-tetrahydro-pyrido[2,3-d]pyrimidin-4-yl)-pyrrolidin-3-ol] | < 1 |
| CNc1cc(N2CC[C@@H](CO)C2)nc(N)n1 [Example 64, [(R)-1-(2-Amino-6-methylamino-pyrimidin-4-yl)-pyrrolidin-3-yl]-methanol] | < 1 |
| FC1(F)CCN(c2ncnc3c2CCCN3)C1 [Example 74, 4-(3,3-Difluoro-pyrrolidin-1-yl)-5,6,7,8-tetrahydro-pyrido[2,3-d]pyrimidine] | > 100 |
| CNc1cc(N2CC[C@@H](O)C2)nc(N)n1 [Example 60, (R)-1-(2-Amino-6-methylamino-pyrimidin-4-yl)-pyrrolidin-3-ol] | 1 to 100 |
| CCCNc1cc(N2CCC(F)(F)C2)nc(N)n1 [Example 72, 6-(3,3-Difluoro-pyrrolidin-1-yl)-N4-propyl-pyrimidine-2,4-diamine] | 1 to 100 |
| CNc1cc(N2CCCC2C(C)(C)c2ccccc2)nc(N)n1 (stereo not drawn) [Example 83, N4-Methyl-6-[2-(1-methyl-1-phenylethyl)-pyrrolidin-1-yl]-pyrimidine-2,4-diamine] | < 1 |
| Nc1nc(NC2CC2)cc(N2CCC(F)(F)C2)n1 [Example 4, N^4-cyclopropyl-6-(3,3-difluoro-pyrrolidin-1-yl)-pyrimidine-2,4-diamine] | 1 to 100 |
| Nc1nc2c(c(N3CC[C@H](O)C3)n1)CCCN2 [Example 73, (S)-1-(2-Amino-5,6,7,8-tetrahydro-pyrido[2,3-d]pyrimidin-4-yl)-pyrrolidin-3-ol-formiate] | 1 to 100 |
| Cc1ccc(CCNc2cc(N3CCC(F)(F)C3)nc(N)n2)cc1 [Example 145, 6-(3,3-Difluoro-pyrrolidin-1-yl)-N4-(2-p-tolyl-ethyl)-pyrimidine-2,4-diamine-formiate] | 1 to 100 |
| Nc1nc(NC2CC2)cc(N2CCCC2Cc2ccccc2Cl)n1 (stereo not drawn) [Example 36, 6-[2-(2-Chloro-benzyl)-pyrrolidin-1-yl]-N4-cyclopropyl-pyrimidine-2,4-diamine] | < 1 |
| Nc1nc(NC2CC2)cc(N2CCC(O)C2)n1 (stereo not drawn) [Example 6, 1-(2-amino-6-cyclopropylamino-pyrimidin-4-yl)-pyrrolidin-3-ol] | 1 to 100 |
| CNc1cc(N2C(=O)CC[C@H]2CO)nc(N)n1 [Example 99, (S)-1-(2-Amino-6-methylamino-pyrimidin-4-yl)-5-hydroxymethyl-pyrrolidin-2-one] | > 100 |
| CNc1cc(N2CC[C@H](CO)C2)nc(N)n1 [Example 65, [(S)-1-(2-Amino-6-methylamino-pyrimidin-4-yl)-pyrrolidin-3-yl]-methanol] | < 1 |
| CNc1cc(N2CCC(CO)C2)nc(N)n1 (stereo not drawn) [Example 1, [1-(2-amino-6-methylamino-pyrimidin-4-yl)-pyrrolidin-3-yl]-methanol] | < 1 |
| CNc1cc(N2CC(c3ccccc3)CC2=O)nc(N)n1 (stereo not drawn) [Example 96, 1-(2-Amino-6-methylamino-pyrimidin-4-yl)-4-phenyl-pyrrolidin-2-one] | > 100 |
| Nc1nc(NC2CC2)cc(N2CCCC2C(=O)O)n1 (stereo not drawn) [Example 80, 1-(2-Amino-6-cyclopropylamino-pyrimidin-4-yl)-pyrrolidine-2-carboxylic acid] | > 100 |
| Nc1nc(NC2CC2)cc(N2CC[C@@H](CO)C2)n1 [Example 66, [(R)-1-(2-Amino-6-cyclopropylamino-pyrimidin-4-yl)-pyrrolidin-3-yl]-methanol] | < 1 |
| CNc1cc(N2CCCC2Cc2ccccc2C)nc(N)n1 (stereo not drawn) [Example 89, N4-Methyl-6-[2-(2-methyl-benzyl)-pyrrolidin-1-yl]-pyrimidine-2,4-diamine] | < 1 |
| CCC1(O)CCN(c2cc(NC3CC3)nc(N)n2)C1 (stereo not drawn) [Example 40, 1-(2-Amino-6-cyclopropylamino-pyrimidin-4-yl)-3-ethyl-pyrrolidin-3-ol] | 1 to 100 |
| CNc1cc(N2CCC(OC)C2)nc(N)n1 (stereo not drawn) [Example 9, 86-(3-methoxy-pyrrolidin-1-yl)-N^4-methyl-pyrimidine-2,4-diamine-formate] | < 1 |
| Nc1nc(NC2CC2)cc(N2CCCC2C(=O)NCCc2ccc(S(=O)(=O)F)cc2)n1 (stereo not drawn) [Example 119, 4-(2-{[1-(2-Amino-6-cyclopropylamino-pyrimidin-4-yl)-pyrrolidine-2-carbonyl]-amino}-ethyl)-benzenesulfonyl fluoride] | 1 to 100 |

Continued, values first:

| IC50 [nM] | Structure (SMILES) |
| --- | --- |
| 1 to 100 | CC(C)Nc1cc(N2CCC(F)(F)C2)nc(N)n1 [Example 69, 6-(3,3-Difluoro-pyrrolidin-1-yl)-N4-isopropyl-pyrimidine-2,4-diamine] |
| 1 to 100 | CCNc1cc(N2CCC(F)(F)C2)nc(N)n1 [Example 68, 6-(3,3-Difluoro-pyrrolidin-1-yl)-N4-ethyl-pyrimidine-2,4-diamine] |
| < 1 | CNc1cc(N2CCCC2c2ccsc2)nc(N)n1 (stereo not drawn) [Example 111, N4-Methyl-6-(2-thiophen-3-yl-pyrrolidin-1-yl)-pyrimidine-2,4-diamine] |
| 1 to 100 | CC1C(c2ccccc2)CCN1c1cc(NC2CC2)nc(N)n1 (stereo not drawn) [Example 41, N4-Cyclopropyl-6-(2-methyl-3-phenyl-pyrrolidin-1-yl)-pyrimidine-2,4-diamine] |
| 1 to 100 | Nc1nc(NC2CC2)cc(N2CCC[C@H]2CO)n1 [Example 13, [(S)-1-(2-amino-6-cyclopropylamino-pyrimidin-4-yl)-pyrrolidin-2-yl]-methanol] |
| < 1 | CNc1cc(N2CCCC2C(C)C)nc(N)n1 (stereo not drawn) [Example 101, 6-(2-Isopropyl-pyrrolidin-1-yl)-N4-methyl-pyrimidine-2,4-diamine-formate] |
| 1 to 100 | Nc1nc(NC2CC2)cc(N2CCC[C@@H]2CO)n1 [Example 11, [(R)-1-(2-amino-6-cyclopropylamino-pyrimidin-4-yl)-pyrrolidin-2-yl]-methanol-formate] |
| 1 to 100 | Nc1nc(NC2CC2)cc(N2CC[C@](O)(c3ccccc3)C2)n1 (single isomer, unassigned) [Example 37] |
| 1 to 100 | Nc1nc(NCC2CC2)cc(N2CCC(F)(F)C2)n1 [Example 71, N4-Cyclopropylmethyl-6-(3,3-difluoro-pyrrolidin-1-yl)-pyrimidine-2,4-diamine] |
| 1 to 100 | CNc1cc(N2CCCC(O)(c3ccccc3)C2)nc(N)n1 (stereo not drawn) [Example 79, 1-(2-Amino-6-methylamino-pyrimidin-4-yl)-3-phenyl-piperidin-3-ol] |
| 1 to 100 | CNc1cc(N2CCC(c3ccccc3)C2=O)nc(N)n1 (stereo not drawn) [Example 103, 1-(2-Amino-6-methylamino-pyrimidin-4-yl)-3-phenyl-pyrrolidin-2-one] |
| 1 to 100 | NC(=O)[C@H]1CCN(c2cc(NC3CC3)nc(N)n2)C1 [Example 61, (S)-1-(2-Amino-6-cyclopropylamino-pyrimidin-4-yl)-pyrrolidine-3-carboxylic acid amide] |

Reference: US20180118721A1, “PYRIMIDINE DERIVATIVES” (Merck Patent GmbH, priority 2015, published 2018)
